Laboratory results reported in the supplement of paper PMC10307832.

Assays:
Experiment in all cases: relative viability (nuclei count vs DMSO), 5 days (fraction); higher = more cells survive
[1] = compound: C1CSC2=C(C(=O)N1)SC3=C2C=C(C=C3)O [kb NB 142-70] + O=C(CCCCCCC(=O)Nc1ccccc1)NO [Vorinostat] (partner 1 µM)
In short: (§1)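 Lung cancer cell lines were seeded in 1536-well plates and dosed by pin tool the next day, with either a single drug or a fixed anchor-drug dose combined with five library-drug doses (not always all listed) spaced in √10 steps. Five days later, one step fixed the cells and stained their nuclei (final 0.05% Triton X-100, 1% formaldehyde, 1 ug/ml Hoechst), and nuclei were counted on 4× images. Relative viability is the nuclei count in treated wells divided by the count in vehicle wells, and each value is the median of duplicate plates.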

kb NB 142-70 + Olaparib = compound: C1CSC2=C(C(=O)N1)SC3=C2C=C(C=C3)O [kb NB 142-70] + O=C(c1cc(Cc2n[nH]c(=O)c3ccccc23)ccc1F)N1CCN(C(=O)C2CC2)CC1 [Olaparib] (partner 8 µM)
In short: as §1

[2] = compound: NCC(=O)Nc1ccc(-n2nc(C(F)(F)F)cc2-c2ccc3c(ccc4ccccc43)c2)cc1 + Cc1cc(Nc2cc(N3CCN(C)CC3)nc(Sc3ccc(NC(=O)C4CC4)cc3)n2)n[nH]1 [Tozasertib] (partner 0.1 µM)
In short: as §1

[3] = compound: NCC(=O)Nc1ccc(-n2nc(C(F)(F)F)cc2-c2ccc3c(ccc4ccccc43)c2)cc1 + Nc1ncn([C@H]2C[C@H](O)[C@@H](CO)O2)c(=O)n1 [Decitabine] (partner 2 µM)
In short: as §1

kb NB 142-70 + Lapatinib = compound: C1CSC2=C(C(=O)N1)SC3=C2C=C(C=C3)O [kb NB 142-70] + CS(=O)(=O)CCNCc1ccc(-c2ccc3ncnc(Nc4ccc(OCc5cccc(F)c5)c(Cl)c4)c3c2)o1 [Lapatinib] (partner 2 µM)
In short: as §1

| Cell Line | relative viability ([1]; first compound 0.1 µM) | relative viability ([1]; first compound 1 µM) | relative viability ([1]; first compound 3.162 µM) | relative viability (kb NB 142-70 + Olaparib; first compound 0.1 µM) | relative viability (kb NB 142-70 + Olaparib; first compound 1 µM) | relative viability (kb NB 142-70 + Olaparib; first compound 3.162 µM) | relative viability ([2]; first compound 0.02 µM) | relative viability ([2]; first compound 0.06325 µM) | relative viability ([2]; first compound 0.2 µM) | relative viability ([2]; first compound 0.6325 µM) | relative viability ([2]; first compound 2 µM) | relative viability ([3]; first compound 0.02 µM) | relative viability ([3]; first compound 0.06325 µM) | relative viability ([3]; first compound 0.2 µM) | relative viability ([3]; first compound 0.6325 µM) | relative viability ([3]; first compound 2 µM) | relative viability (kb NB 142-70 + Lapatinib; first compound 0.1 µM) | relative viability (kb NB 142-70 + Lapatinib; first compound 1 µM) | relative viability (kb NB 142-70 + Lapatinib; first compound 3.162 µM) |
| --- | --- | --- | --- | --- | --- | --- | --- | --- | --- | --- | --- | --- | --- | --- | --- | --- | --- | --- | --- |
| 201T | 0.943 | 1.02 | 1.06 | 0.828 | 0.87 | 0.85 | 0.943 | 0.958 | 1.04 | 0.924 | 0.928 | 0.838 | 0.846 | 0.901 | 0.87 | 0.846 | 1.05 | 1.06 | 1.06 |
| A549 | – | – | – | 0.305 | 0.363 | 0.155 | – | – | – | – | – | 0.263 | 0.249 | 0.2 | 0.257 | 0.31 | 0.979 | 0.928 | 0.428 |
| A-427 | 0.864 | 0.969 | 0.932 | 0.747 | 0.77 | 0.52 | – | 0.213 | 0.191 | 0.208 | 0.205 | 0.502 | 0.544 | 0.583 | 0.545 | 0.57 | 1.12 | 1.14 | 1.04 |
| ABC-1 | 1.13 | 0.975 | 0.453 | 0.712 | 0.746 | 0.427 | 0.183 | 0.199 | – | 0.134 | 0.187 | 0.917 | 1.02 | – | 0.954 | 1.13 | 0.946 | 1.22 | 1.07 |
| BEN | 0.553 | 0.585 | 0.573 | 1.09 | 1.21 | 1.01 | 0.422 | 0.499 | 0.461 | 0.464 | 0.572 | 0.69 | 0.669 | 0.7 | 0.709 | 0.77 | 0.731 | 0.66 | 0.519 |
| CAL-12T | 0.767 | 0.663 | 0.564 | 0.7 | 0.691 | 0.677 | 0.304 | 0.368 | 0.344 | 0.334 | 0.277 | – | – | – | – | – | 0.673 | 0.673 | 0.496 |
| COR-L23 | 0.515 | 0.428 | 0.214 | 0.344 | 0.442 | 0.263 | 0.208 | 0.213 | 0.195 | 0.21 | 0.136 | 0.437 | 0.434 | 0.475 | 0.413 | 0.309 | 0.972 | 1 | 0.586 |
| COR-L 105 | 0.812 | 0.831 | 0.776 | 0.82 | 0.637 | 0.726 | 0.361 | 0.313 | 0.303 | 0.295 | 0.336 | 0.726 | 0.588 | 0.698 | 0.635 | 0.653 | 0.382 | 0.427 | 0.361 |
| Calu-6 | – | – | – | 0.589 | 0.457 | 0.287 | – | – | – | – | – | – | – | – | – | – | 1.07 | 0.972 | 0.627 |
| ChaGo-K-1 | 0.815 | 0.813 | 0.7 | 0.489 | 0.361 | 0.362 | 0.21 | 0.223 | 0.241 | 0.251 | 0.231 | 0.55 | 0.526 | 0.506 | 0.522 | 0.549 | – | – | – |
| EBC-1 | – | – | – | 0.775 | 0.587 | 0.385 | – | – | – | – | – | – | – | – | – | – | 0.233 | 0.211 | 0.217 |
| EKVX | 0.677 | 0.481 | 0.814 | 0.853 | 0.88 | 0.984 | 0.443 | 0.374 | 0.431 | 0.39 | 0.386 | 0.365 | 0.368 | 0.369 | 0.393 | 0.361 | 0.263 | 0.216 | 0.235 |
| EMC-BAC-2 | 0.556 | 0.472 | 0.16 | 0.531 | 0.505 | 0.384 | 0.29 | 0.314 | 0.325 | 0.308 | 0.302 | 1.02 | 0.998 | 1.05 | 0.948 | 0.944 | 0.942 | 0.898 | 0.743 |
| EPLC-272H | 0.597 | 0.273 | 0.155 | 0.761 | 0.481 | 0.121 | 0.299 | 0.225 | 0.365 | 0.313 | 0.234 | 0.382 | 0.35 | 0.331 | 0.423 | 0.372 | 0.937 | 0.817 | 0.649 |
| H3255 | 0.973 | 0.864 | 0.842 | 0.559 | 0.577 | 0.604 | 0.657 | 0.511 | 0.749 | 0.686 | 0.713 | 0.669 | 0.479 | 0.643 | 0.715 | 0.667 | 0.271 | 0.195 | 0.234 |
| HARA | 0.449 | 0.438 | 0.563 | 0.873 | 0.602 | 0.547 | 0.0731 | 0.108 | 0.12 | 0.0964 | 0.0949 | 0.581 | 0.611 | 0.537 | 0.654 | 0.528 | 0.943 | 0.634 | 0.661 |
| HCC-15 | 0.812 | 0.816 | 0.801 | 0.722 | 0.748 | 0.752 | 0.379 | 0.416 | 0.39 | 0.489 | 0.347 | 0.623 | 0.659 | 0.677 | 0.67 | 0.654 | 0.854 | 0.932 | 0.743 |
| HCC-44 | 1.09 | 1.14 | 1.21 | 0.945 | 0.981 | 0.974 | 1.03 | 1.26 | 0.879 | 0.803 | 0.829 | 0.885 | 0.956 | 0.933 | 0.905 | 0.927 | 1.02 | 1.03 | 0.996 |
| HCC-78 | 0.407 | 0.602 | 0.483 | 0.791 | 0.773 | 0.83 | 0.408 | 0.415 | 0.501 | 0.403 | 0.411 | 0.788 | 0.763 | 0.698 | 0.675 | 0.658 | 0.919 | 0.941 | 0.744 |
